Values of other authors as cited in patent US20120301532A1, “COMPOSITIONS AND METHODS FOR TREATING MATERIALS WITH INSECTICIDES AND POTENTIATING AGENTS” (ALLERGY TECHNOLOGIES, LLC, priority 2011, published 2012).

Test system: bed bugs
Details: bed bug attractants, background statement

O=C=O [CO2]
effective attractant range: ≥ 86 centimeters
